In patent publication US12319689B2, “Methyl- and trifluoromethyl-containing disubstituted sulfonamide selective BCL-2 inhibitor” (CHIA TAI TIANQING PHARMACEUTICAL GROUP CO., LTD., priority 2019, dated 2025):

What was measured:
RS4;11 cells = experiment: Inhibition of proliferation of RS4;11 human acute lymphocytic leukemia cells (CCK-8); assay type: cell-based; conditions: 72 h compound exposure, CCK-8, 5% serum
Procedure: RS4;11 cells (from ATCC) in logarithmic growth phase and good cell condition were added to a centrifuge tube and centrifuged at 1500 rpm for 3 min in a low speed centrifuge. The supernatant was discarded, and 5 mL of complete medium (RPMI basic medium+10% FBS) was added using a pipette for cell resuspension. The cells were counted using a cell counter, diluted with complete medium to a cell density of 2×10^5 cells/mL, and an equivalent amount of RPMI basic medium was added to adjust the serum concentration to 5% and the cell density to 1×10^5 cells/mL for plate seeding. The cells were seeded on a 96-well plate at 100 μL/well using a pipettor, and incubated in an incubator at 37° C., 5% CO2 with saturated humidity. After 24 h of incubation, compounds were loaded using a nanoliter pipettor, 2 duplicate wells were set for each concentration, and cells without compound were used as negative controls. […] Inhibition rate (%)=(mean value of negative control group−mean value of experimental group)/(mean value of negative control group−mean value of blank group)×100%. A dose-response curve was fitted by four-parameter analysis, with the logarithm of compound concentration serving as abscissa and inhibition rate serving as ordinate, so that IC50 was calculated (Table 1).

[1] = tested on: RS4;11 human acute lymphoblastic leukemia subcutaneous xenograft tumors; experiment: RS4;11 human acute lymphoblastic leukemia mouse subcutaneous tumor xenograft model; assay type: in vivo, NOD/SCID mice; conditions: 25 mg/kg single intragastric dose; Day 12 after the end of administration
Procedure: SPF female NOD/SCID mice (Shanghai Lingchang Biotech Co., Ltd.) were inoculated subcutaneously at the right side armpit with 1×10^7 RS4;11 cells (ATCC). When the mean tumor volume reached about 180 mm^3, the mice were divided into 3 groups according to the tumor size: vehicle, compound 1-1 (25 mg/kg) and compound 3-1 (25 mg/kg). The day of grouping was determined as d0. On d1, a single intragastric dose at a volume of 10 mL/kg was administered, and the animals were observed.
The calculation formula for tumor volume: Tumor volume (mm^3)=½×(a×b^2) (where a represents long diameter and b represents short diameter).
Relative tumor proliferation rate (T/C %) refers to the percentage of the relative tumor volume or tumor weight of the treatment and control groups at a certain time point. The calculation formula is as follows: T/C %=TRTV/CRTV×100% (TRTV: mean relative tumor volume (RTV) for treatment group; CRTV: mean RTV for vehicle control group; RTV=TVt/TV0, where TV0 is the tumor volume at grouping, TVt is the tumor volume after treatment).
Tumor growth inhibition rate (TGI %) is calculated according to the following formula: TGI %=(1−T/C)×100%. (T and C are the relative tumor volume (RTV) or tumor weight (TW) at a particular time point for the treatment and control groups, respectively).
The calculation formula for weight change rate (WCR) (%) is: WCR=(Wtt−Wt0)/Wt0×100%, where Wt0 is the body weight of the animal at grouping (i.e., d0), Wtt is the body weight of the animal at each measurement.
All experimental results are expressed as mean±SD (mean±standard deviation). The relative tumor volume of the treatment group was compared with that of the control group for any significant difference by T tests, wherein p<0.05 indicates a significant difference, and p<0.01 indicates a very significant difference.

BCL-2/BAK = target: T1, BCL-2/BAK (Homo sapiens, UniProt P10415); experiment: Inhibitory activity for BCL-2/BAK binding (Cisbio BCL-2/BAK (BH3) binding assay kit)
T1 construct: purchased Cisbio 63ADK000CB01PEG
T1 sequence (P10415 whole entry): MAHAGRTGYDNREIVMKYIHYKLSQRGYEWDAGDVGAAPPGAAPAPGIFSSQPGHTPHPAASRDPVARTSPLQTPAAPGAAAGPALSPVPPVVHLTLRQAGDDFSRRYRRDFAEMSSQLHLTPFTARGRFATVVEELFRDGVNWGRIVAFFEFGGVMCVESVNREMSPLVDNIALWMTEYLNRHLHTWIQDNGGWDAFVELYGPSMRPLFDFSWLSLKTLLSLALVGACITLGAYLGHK
Procedure: 500 nM Tag1-BCL-2 protein stock solution and 20 μM Tag2-BAK protein stock solution were diluted to 5 nM and 120 nM respectively with dilution buffer in kit (name: BCL-2/BAK (BH3) BINDING ASSAY KITS, cat. No.: 63ADK000CB01PEG, from Cisbio). 5 μL of Tag1-BCL-2 protein diluent was added to each well, then test compounds dissolved with DMSO were added to the wells with a nanoliter pipettor, allowing the final compound concentrations to be 200 nM to 0.0488 nM (4-fold gradient for 7 concentrations in total). Blank control wells (without enzyme) and negative control wells (with enzyme, plus vehicle DMSO) were set, and 2 replicate wells were set. Finally, 5 μL of Tag2-BAK protein diluent was added to each well, and the mixture was mixed well by centrifugation and incubated at 25° C. for 15 min. 100× anti-Tag1-Eu^3+ and 100× anti-Tag2-XL665 were both diluted to 1× working concentration with the detection buffer in the kit. Anti-Tag1-Eu^3+ and anti-Tag2-XL665 were mixed well in a 1:1 ratio, and the mixture was added to wells at 5 μL/well, and incubated at 25° C. for 2 h or more. The plate was read using a PE Envision multi-functional microplate reader ([…], emission: 665 nm) and IC50 (shown in Table 2) was calculated by four-parameter fitting.

BCL-XL/BAK = target: T2, BCL-XL/BAK (Homo sapiens, UniProt Q07817); experiment: Inhibitory activity for BCL-XL/BAK binding (Cisbio BCL-XL/BAK (BH3) binding assay kit)
T2 construct: purchased Cisbio 63ADK000CB04PEG
T2 sequence (Q07817 whole entry): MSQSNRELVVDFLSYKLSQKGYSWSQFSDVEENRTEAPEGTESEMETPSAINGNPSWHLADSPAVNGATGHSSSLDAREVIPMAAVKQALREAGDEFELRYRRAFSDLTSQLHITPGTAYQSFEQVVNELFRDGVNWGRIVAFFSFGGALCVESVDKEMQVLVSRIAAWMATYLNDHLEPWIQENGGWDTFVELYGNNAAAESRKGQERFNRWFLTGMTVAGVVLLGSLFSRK
Procedure: 300 nM Tag1-BCL-XL protein stock solution and 10 μM Tag2-BAK protein stock solution were diluted to 2 nM and 80 nM respectively with dilution buffer in kit (name: BCL-XL/BAK (BH3) BINDING ASSAY KITS, cat. No.: 63ADK000CB04PEG, from Cisbio). 5 μL of Tag1-BCL-XL protein diluent was added to each well, then different test compounds dissolved with DMSO were added to the wells with a nanoliter pipettor, allowing the final compound concentrations to be 2000 nM to 0.488 nM (4-fold gradient for 7 concentrations in total). Blank control wells (without enzyme) and negative control wells (with enzyme, plus vehicle DMSO) were set, and 2 replicate wells were set. Finally, 5 μL of Tag2-BAK protein diluent was added to each well, and the mixture was mixed well by centrifugation and incubated at 25° C. for 15 min. 100× anti-Tag1-Eu^3+ and 100× anti-Tag2-XL665 were both diluted to 1× working concentration with the detection buffer in the kit. Anti-Tag1-Eu^3+ and anti-Tag2-XL665 were mixed well in a 1:1 ratio, and the mixture was added to wells at 5 μL/well, and incubated at 25° C. for 2 h or more. The plate was read using a PE Envision multi-functional microplate reader ([…], emission: 665 nm) and IC50 (shown in Table 2) was calculated by four-parameter fitting.

Row | Structure (SMILES) | IC50 (RS4;11 cells) [nM] | IC50 (BCL-2/BAK) [nM] | further results
1 | Cc1cc(C(F)(F)F)ccc1C1=C(CN2CCN(c3ccc(C(=O)NS(=O)(=O)c4ccc(NCC5CCOCC5)c([N+](=O)[O-])c4)c(Oc4cnc5[nH]ccc5c4)c3)CC2)CCC(C)(C)C1 [Compound 1-1, 4-(4-{[2-(2-methyl-4-trifluoromethylphenyl)-4,4-dimethylcyclohex-1-enyl]methyl}-piperazin-1-yl)-N-({3-nitro-4-[(tetrahydro-2H-pyran-4-ylmethyl)amino]phenyl}sulfonyl)-2-(1H-pyrrolo[2,3-b]pyridin-5-yloxy)-benzamide] | 3.9 |  | Relative tumor volume (mean ± SD) [1]: 2.1 ± 0.6; T/C [1]: 40.4%; TGI [1]: 59.6%; Tumor volume (mean ± SD) [1]: 350 ± 80 mm^3; Weight change rate (mean ± SD) [1]: 8.20 ± 3.58%
2 | Cc1cc(C(F)(F)F)ccc1C1=C(CN2CCN(c3ccc(C(=O)NS(=O)(=O)c4ccc(NC[C@@H]5COCCO5)c([N+](=O)[O-])c4)c(Oc4cnc5[nH]ccc5c4)c3)CC2)CCC(C)(C)C1 [Compound 2-1] | 4.2 |  | 
3 | Cc1cc(C(F)(F)F)ccc1C1=C(CN2CCN(c3ccc(C(=O)NS(=O)(=O)c4ccc(NC[C@H]5COCCO5)c([N+](=O)[O-])c4)c(Oc4cnc5[nH]ccc5c4)c3)CC2)CCC(C)(C)C1 [Compound 3-1] | 1.9 | 1.49 | Relative tumor volume (mean ± SD) [1]: 1.3 ± 0.8; T/C [1]: 25.0%; TGI [1]: 75.0%; Tumor volume (mean ± SD) [1]: 213 ± 93 mm^3; Weight change rate (mean ± SD) [1]: 5.61 ± 3.61%
4 | COCC(=O)N1CCO[C@@H](CNc2ccc(S(=O)(=O)NC(=O)c3ccc(N4CCN(CC5=C(c6ccc(C(F)(F)F)cc6C)CC(C)(C)CC5)CC4)cc3Oc3cnc4[nH]ccc4c3)cc2[N+](=O)[O-])C1 [Compound 4-1] | 5.4 | 0.7 | 
5 | Cc1cc(C(F)(F)F)ccc1C1=C(CN2CCN(c3ccc(C(=O)NS(=O)(=O)c4ccc(NC[C@H]5CCOC5)c([N+](=O)[O-])c4)c(Oc4cnc5[nH]ccc5c4)c3)CC2)CCC(C)(C)C1 [Compound 9-1, (R)-4-(4-{[2-(2-methyl-4-trifluoromethylphenyl)-4,4-dimethylcyclohex-1-enyl]methyl}-piperazin-1-yl)-N-({3-nitro-4-[((tetrahydrofuran-3-yl)methyl)amino]phenyl}sulfonyl)-2-(1H-pyrrolo[2,3-b]pyridin-5-yloxy)-benzamide] |  | 1.26 | IC50 (BCL-XL/BAK): 219 nM
6 | Cc1cc(C(F)(F)F)ccc1C1=C(CN2CCN(c3ccc(C(=O)NS(=O)(=O)c4ccc(NC[C@@H]5CCOC5)c([N+](=O)[O-])c4)c(Oc4cnc5[nH]ccc5c4)c3)CC2)CCC(C)(C)C1 [Compound 10-1, (S)-4-(4-{[2-(2-methyl-4-trifluoromethylphenyl)-4,4-dimethylcyclohex-1-enyl]methyl}-piperazin-1-yl)-N-({3-nitro-4-[((tetrahydrofuran-3-yl)methyl)amino]phenyl}sulfonyl)-2-(1H-pyrrolo[2,3-b]pyridin-5-yloxy)-benzamide] |  | 1.1 | IC50 (BCL-XL/BAK): 102 nM
7 | Cc1cc(C(F)(F)F)ccc1C1=C(CN2CCN(c3ccc(C(=O)NS(=O)(=O)c4ccc(NC[C@@H]5CCCO5)c([N+](=O)[O-])c4)c(Oc4cnc5[nH]ccc5c4)c3)CC2)CCC(C)(C)C1 [Compound 11-1, (S)-4-(4-{[2-(2-methyl-4-trifluoromethylphenyl)-4,4-dimethylcyclohex-1-enyl]methyl}-piperazin-1-yl)-N-({3-nitro-4-[((tetrahydrofuran-2-yl)methyl)amino]phenyl}sulfonyl)-2-(1H-pyrrolo[2,3-b]pyridin-5-yloxy)-benzamide] |  | 1.79 | 
8 | CC(=O)N1CCO[C@@H](CNc2ccc(S(=O)(=O)NC(=O)c3ccc(N4CCN(CC5=C(c6ccc(C(F)(F)F)cc6C)CC(C)(C)CC5)CC4)cc3Oc3cnc4[nH]ccc4c3)cc2[N+](=O)[O-])C1 [Compound 18-1, (S)-4-(4-{[2-(2-methyl-4-trifluoromethylphenyl)-4,4-dimethylcyclohex-1-enyl]methyl}-piperazin-1-yl)-N-({3-nitro-4-[((4-acetylmorpholin-2-yl)methyl)amino]phenyl}sulfonyl)-2-(1H-pyrrolo[2,3-b]pyridin-5-yloxy)-benzamide] | 5.5 | 1.54 | 
9 | CC(=O)N1CCO[C@H](CNc2ccc(S(=O)(=O)NC(=O)c3ccc(N4CCN(CC5=C(c6ccc(C(F)(F)F)cc6C)CC(C)(C)CC5)CC4)cc3Oc3cnc4[nH]ccc4c3)cc2[N+](=O)[O-])C1 [Compound 19-1, (R)-4-(4-{[2-(2-methyl-4-trifluoromethylphenyl)-4,4-dimethylcyclohex-1-enyl]methyl}-piperazin-1-yl)-N-({3-nitro-4-[((4-acetylmorpholin-2-yl)methyl)amino]phenyl}sulfonyl)-2-(1H-pyrrolo[2,3-b]pyridin-5-yloxy)-benzamide] | 3.4 | 0.97 | 
10 | Cc1cc(C(F)(F)F)ccc1C1=C(CN2CCN(c3ccc(C(=O)NS(=O)(=O)c4ccc(NC[C@H]5CN(C(=O)C(C)C)CCO5)c([N+](=O)[O-])c4)c(Oc4cnc5[nH]ccc5c4)c3)CC2)CCC(C)(C)C1 [Compound 20-1, (S)-4-(4-{[2-(2-methyl-4-trifluoromethylphenyl)-4,4-dimethylcyclohex-1-enyl]methyl}-piperazin-1-yl)-N-({3-nitro-4-[((4-isobutyrylmorpholin-2-yl)methyl)amino]phenyl}sulfonyl)-2-(1H-pyrrolo[2,3-b]pyridin-5-yloxy)-benzamide] |  | 2.06 | 
11 | Cc1cc(C(F)(F)F)ccc1C1=C(CN2CCN(c3ccc(C(=O)NS(=O)(=O)c4ccc(NC[C@@H]5CN(S(C)(=O)=O)CCO5)c([N+](=O)[O-])c4)c(Oc4cnc5[nH]ccc5c4)c3)CC2)CCC(C)(C)C1 [Compound 23-1, (R)-4-(4-{[2-(2-methyl-4-trifluoromethylphenyl)-4,4-dimethylcyclohex-1-enyl]methyl}-piperazin-1-yl)-N-({3-nitro-4-[((4-(methylsulfonyl)morpholin-2-yl)methyl)amino]phenyl}sulfonyl)-2-(1H-pyrrolo[2,3-b]pyridin-5-yloxy)-benzamide] | 2.5 | 1.1 | 
